This assay addresses T1, DipA (Borreliella burgdorferi, UniProt O51379).
T1 construct: gene BB_0418; native protein from outer membrane fraction of B. burgdorferi B31 delta-p66, hydroxyapatite chromatography in Genapol, untagged; predicted 20-residue signal peptide removed; 36 kDa; minor truncated OspA/OspB in fraction
The assay is described as follows: biochemical. The format is binding. The source says:
planar lipid bilayer, titration of channel conductance block on DipA

pKd: −log10 of the molar value.

T1 sequence (O51379 entry or part of it): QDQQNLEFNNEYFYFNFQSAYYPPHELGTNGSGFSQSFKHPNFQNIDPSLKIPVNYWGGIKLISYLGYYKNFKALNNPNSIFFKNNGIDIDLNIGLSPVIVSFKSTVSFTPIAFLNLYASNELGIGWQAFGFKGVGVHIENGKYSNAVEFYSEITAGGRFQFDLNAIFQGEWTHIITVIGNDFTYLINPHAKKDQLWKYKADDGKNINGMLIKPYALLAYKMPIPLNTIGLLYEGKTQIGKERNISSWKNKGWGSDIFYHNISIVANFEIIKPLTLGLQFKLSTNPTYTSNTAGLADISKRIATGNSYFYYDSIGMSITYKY

In the case of `O=C(O)C[C@H](O)C(=O)O` [Malate], the negative-log Kd (pKd) (in general, the negative decadic logarithm of the Kd, by convention in mol/L) was 3.11.

Compound `N[C@@H](CC(=O)O)C(=O)O` [Aspartate] had a negative-log Kd (pKd) of 3.11.

With `O=C(O)/C=C\C(=O)O` [Maleate], the pKd was 4.45.

On to `O=C(O)CCC(=O)O` [Succinate], for which the pKd was 3.79.

Compound `CC(=O)C(=O)O` [Pyruvate] showed a negative-log Kd (pKd) of 2.67.

Compound `N[C@@H](CCC(=O)O)C(=O)O` [Glutamate] had a pKd of 3.10. Against the preceding compound, the pKd is 0.43 log units higher.

`O=C(O)CC(=O)C(=O)O` [Oxaloacetate] gave a pKd of 4.30.

For `O=C(O)/C=C/C(=O)O` [Fumarate], the negative-log Kd (pKd) was 2.62.

In the case of `O=C(O)c1ccccc1C(=O)O` [Phthalate], the negative-log Kd (pKd) was 3.76. This pKd is 1.14 log units higher than that of the compound before.

For the compound `O=C(O)CCC(=O)C(=O)O` [2-Oxoglutarate], the pKd was 3.54.

Consider `O=C(O)CC(O)(CC(=O)O)C(=O)O` [Citrate], for which the pKd was 4.11.

For the origin of these results see paper PMC3349712, “DipA, a Pore-Forming Protein in the Outer Membrane of Lyme Disease Spirochetes Exhibits Specificity for the Permeation of Dicarboxylates” (PLoS ONE, 2012).
